One experiment concerns PC3 cells. Description: NAMPT Cell Proliferation Assay. It is filed as cell-based. The conditions noted are these: Homo sapiens, PC-3, 120 h, 5 days incubation, cell viability by Cell Titer Glo. The method in brief:
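PC3 cells were plated at 500 cells/well in RPMI with 10% heat-inactivated FBS, left to attach overnight, then given compounds in 10-fold dilutions from 10 μM to 1×10^−5 μM. After 5 days at 37° C and 5% CO2, viability was read by luminescence and IC50s came from sigmoidal fits of percent inhibition.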

Experiment [1] concerns the target NAMPT (human, recombinant, C-terminally His-tagged) (Homo sapiens, UniProt P43490). Put plainly: Time-Resolved Fluorescence Resonance Energy Transfer (TR-FRET) Binding Assay of NAMPT. The settings on record: without substrates; 6.8 nM NAMPT, 200 nM probe, 3 hours equilibration. The method in brief:
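Read-out is the time-resolved FRET ratio Em520/Em495 (excitation 337 nm) between a terbium anti-His antibody (1 nM) on the enzyme and an Oregon Green 488-labelled nicotinamide-competitive inhibitor probe (200 nM). Enzyme was 6.8 nM, DMSO 2%, pH 7.5 HEPES buffer; 3 h room-temperature equilibration preceded reading.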

The target of a further experiment is NAMPT (Homo sapiens, UniProt P43490). Description: TR-FRET Binding Assay of NAMPT with PRPP. The conditions noted are these: with 200 μM PRPP and 2.5 mM ATP; 2 nM NAMPT, 2 nM probe, 16 hours equilibration. The method in brief:
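NAMPT 2 nM + probe 2 nM + Tb-anti-His Ab 1 nM; PRPP 200 μM, ATP 2.5 mM, DMSO 2%; 16 h equilibration before TR-FRET read.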

Our source for the IC50 values is patent publication US9187472B2 (AbbVie Inc., priority 2012, dated 2015).

Sequence of NAMPT (P43490 whole entry): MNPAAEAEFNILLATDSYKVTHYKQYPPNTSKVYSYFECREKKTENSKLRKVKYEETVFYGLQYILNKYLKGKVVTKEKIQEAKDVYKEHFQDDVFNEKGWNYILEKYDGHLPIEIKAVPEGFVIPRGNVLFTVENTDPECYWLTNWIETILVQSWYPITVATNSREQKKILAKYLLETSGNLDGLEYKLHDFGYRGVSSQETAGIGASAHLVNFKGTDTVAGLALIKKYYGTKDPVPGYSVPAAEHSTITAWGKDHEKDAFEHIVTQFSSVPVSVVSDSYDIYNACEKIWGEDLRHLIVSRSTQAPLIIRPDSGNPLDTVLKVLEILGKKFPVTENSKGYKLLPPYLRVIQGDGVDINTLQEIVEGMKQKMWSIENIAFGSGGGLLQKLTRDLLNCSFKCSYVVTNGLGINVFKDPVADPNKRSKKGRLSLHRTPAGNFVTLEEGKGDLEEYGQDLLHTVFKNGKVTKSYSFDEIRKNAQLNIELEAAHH
Sequence of NAMPT (human, recombinant, C-terminally His-tagged) (P43490 whole entry): as above

As for `COc1ccc(C(=O)N2CCC(c3ccc(C(=O)NCc4ccn5ccnc5c4)s3)C2)cc1` (stereo not drawn) [Example 784, N-(imidazo[1,2-a]pyridin-7-ylmethyl)-5-[1-(4-methoxybenzoyl)pyrrolidin-3-yl]thiophene-2-carboxamide], the values for the IC50 (with PC3 cells; in experiment [1]; at NAMPT) were 2.38 nM, 22.6 nM and 0.455 nM, respectively.
Taken in the same sequence, the figures for `O=C(NCc1ccn2ccnc2c1)c1ccc(C2CCN(C(=O)c3cc(F)ccc3F)C2)s1` (stereo not drawn) [Example 785, 5-[1-(2,5-difluorobenzoyl)pyrrolidin-3-yl]-N-(imidazo[1,2-a]pyridin-7-ylmethyl)thiophene-2-carboxamide] were 0.839 nM, 23.6 nM and 0.638 nM.
For `O=C(NCc1ccn2ccnc2c1)c1ccc(C2CCN(C(=O)c3cccs3)C2)s1` (stereo not drawn) [Example 786, N-(imidazo[1,2-a]pyridin-7-ylmethyl)-5-[1-(thiophen-2-ylcarbonyl)pyrrolidin-3-yl]thiophene-2-carboxamide] the same measures were 7.51 nM, 44.4 nM and 0.484 nM.
For `CC(C)(C)C(=O)N1CCC(c2ccc(C(=O)NCc3ccn4ccnc4c3)s2)C1` (stereo not drawn) [Example 787, 5-[1-(2,2-dimethylpropanoyl)pyrrolidin-3-yl]-N-(imidazo[1,2-a]pyridin-7-ylmethyl)thiophene-2-carboxamide] the same measures were 6.75 nM, 55 nM and 0.474 nM.
`CC(C)(C)CC(=O)N1CCC(c2ccc(C(=O)NCc3ccn4ccnc4c3)s2)C1` (stereo not drawn) [Example 788, 5-[1-(3,3-dimethylbutanoyl)pyrrolidin-3-yl]-N-(imidazo[1,2-a]pyridin-7-ylmethyl)thiophene-2-carboxamide]: the IC50 is 5.44 nM in the experiment on PC3 cells, 82 nM in experiment [1] and 0.674 nM at NAMPT.
For the molecule `CC1(Cn2cc(-c3ccc(C(=O)NCc4ccn5ccnc5c4)s3)cn2)CCNCC1` [Example 789, N-(imidazo[1,2-a]pyridin-7-ylmethyl)-5-{1-[(4-methylpiperidin-4-yl)methyl]-1H-pyrazol-4-yl}thiophene-2-carboxamide], the IC50 stood at 69.4 nM in the experiment with PC3 cells, 21.7 nM in experiment [1] and 0.434 nM on NAMPT.
As for `O=C(NCc1ccn2ccnc2c1)c1ccc(-c2cnn(CC3(F)CCOCC3)c2)o1` [Example 790, 5-{1-[(4-fluorotetrahydro-2H-pyran-4-yl)methyl]-1H-pyrazol-4-yl}-N-(imidazo[1,2-a]pyridin-7-ylmethyl)furan-2-carboxamide], the IC50 was 2.6 nM with PC3 cells, 79.5 nM in experiment [1] and 0.586 nM at NAMPT.
For `CCC(C)(C)C(=O)N1CCC(c2ccc(C(=O)NCc3ccn4ccnc4c3)s2)C1` (stereo not drawn) [Example 791, 5-[1-(2,2-dimethylbutanoyl)pyrrolidin-3-yl]-N-(imidazo[1,2-a]pyridin-7-ylmethyl)thiophene-2-carboxamide] the same measures were 0.898 nM, 47.1 nM and 1.15 nM.
Taken in the same sequence, the figures for `O=C(NCc1ccn2ccnc2c1)c1ccc(C2CCN(C(=O)c3cnccn3)C2)s1` (stereo not drawn) [Example 792, N-(imidazo[1,2-a]pyridin-7-ylmethyl)-5-[1-(pyrazin-2-ylcarbonyl)pyrrolidin-3-yl]thiophene-2-carboxamide] were 9.57 nM, 116 nM and 0.5 nM.
As for `Cc1ccsc1C(=O)N1CCC(c2ccc(C(=O)NCc3ccn4ccnc4c3)s2)C1` (stereo not drawn) [Example 793, N-(imidazo[1,2-a]pyridin-7-ylmethyl)-5-{1-[(3-methylthiophen-2-yl)carbonyl]pyrrolidin-3-yl}thiophene-2-carboxamide], the IC50 in the experiment on PC3 cells was determined as 1.02 nM; in experiment [1] it was 23.1 nM; at NAMPT it was 0.398 nM.
For `Cc1ccccc1C(=O)N1CCC(c2ccc(C(=O)NCc3ccn4ccnc4c3)s2)C1` (stereo not drawn) [Example 794, N-(imidazo[1,2-a]pyridin-7-ylmethyl)-5-[1-(2-methylbenzoyl)pyrrolidin-3-yl]thiophene-2-carboxamide] the same measures were 0.883 nM, 29 nM and 0.465 nM.
For `CC1(C(=O)N2CCC(c3ccc(C(=O)NCc4ccn5ccnc5c4)s3)C2)CC1` (stereo not drawn) [Example 795, N-(imidazo[1,2-a]pyridin-7-ylmethyl)-5-{1-[(1-methylcyclopropyl)carbonyl]pyrrolidin-3-yl}thiophene-2-carboxamide] the same measures were 6.2 nM, 89.6 nM and 0.764 nM.
For the molecule `O=C(NCc1ccn2ccnc2c1)c1ccc(C2CCN(C(=O)CCC(F)(F)F)C2)s1` (stereo not drawn) [Example 796, N-(imidazo[1,2-a]pyridin-7-ylmethyl)-5-[1-(4,4,4-trifluorobutanoyl)pyrrolidin-3-yl]thiophene-2-carboxamide], the IC50 in the experiment with PC3 cells came out at 4.65 nM; in experiment [1], 91.7 nM; on NAMPT it was 0.49 nM.
Taken in the same sequence, the figures for `Cc1noc(C)c1C(=O)N1CCC(c2ccc(C(=O)NCc3ccn4ccnc4c3)s2)C1` (stereo not drawn) [Example 797, 5-{1-[(3,5-dimethyl-1,2-oxazol-4-yl)carbonyl]pyrrolidin-3-yl}-N-(imidazo[1,2-a]pyridin-7-ylmethyl)thiophene-2-carboxamide] were 6.98 nM, 97.2 nM and 0.671 nM.
Taken in the same sequence, the figures for `O=C(NCc1ccn2ccnc2c1)c1ccc(C2CCN(C(=O)c3cccnc3)C2)s1` (stereo not drawn) [Example 798, N-(imidazo[1,2-a]pyridin-7-ylmethyl)-5-[1-(pyridin-3-ylcarbonyl)pyrrolidin-3-yl]thiophene-2-carboxamide] were 9.63 nM, 95.7 nM and 0.47 nM.
Taken in the same sequence, the figures for `Cn1nccc1C(=O)N1CCC(c2ccc(C(=O)NCc3ccn4ccnc4c3)s2)C1` (stereo not drawn) [Example 799, N-(imidazo[1,2-a]pyridin-7-ylmethyl)-5-{1-[(1-methyl-1H-pyrazol-5-yl)carbonyl]pyrrolidin-3-yl}thiophene-2-carboxamide] were 6.96 nM, 102 nM and 0.406 nM.
Regarding `CC(C)C(C)C(=O)N1CCC(c2ccc(C(=O)NCc3ccn4ccnc4c3)s2)C1` (stereo not drawn) [Example 800, 5-[1-(2,3-dimethylbutanoyl)pyrrolidin-3-yl]-N-(imidazo[1,2-a]pyridin-7-ylmethyl)thiophene-2-carboxamide], the IC50 in the experiment with PC3 cells is 6.21 nM; in experiment [1] it was 82.1 nM; on NAMPT, 0.925 nM.
On to `O=C(NCc1ccn2ccnc2c1)c1ccc(C2=CCN(S(=O)(=O)c3ccccc3)CC2)o1` [Example 801, N-(imidazo[1,2-a]pyridin-7-ylmethyl)-5-[1-(phenylsulfonyl)-1,2,3,6-tetrahydropyridin-4-yl]furan-2-carboxamide], for which the concentration for half-maximal inhibition (IC50) in the experiment with PC3 cells is 57.3 nM; in experiment [1] it was 866 nM; at NAMPT, 1 nM.
For `O=C(NCc1ccn2ccnc2c1)c1cnc(C2CCN(C(=O)c3ccccc3F)CC2)s1` [Example 802, 2-[1-(2-fluorobenzoyl)piperidin-4-yl]-N-(imidazo[1,2-a]pyridin-7-ylmethyl)-1,3-thiazole-5-carboxamide] the same measures were 5.83 nM, 35.9 nM and 0.533 nM.
With `O=C(NCc1ccn2ccnc2c1)c1ccc(C2=CCN(C(=O)c3ccccc3F)CC2)o1` [Example 803, 5-[1-(2-fluorobenzoyl)-1,2,3,6-tetrahydropyridin-4-yl]-N-(imidazo[1,2-a]pyridin-7-ylmethyl)furan-2-carboxamide], the IC50 in the experiment with PC3 cells is 17.6 nM; in experiment [1], 314 nM; at NAMPT, 1.01 nM.
For `O=C(NCc1ccn2ccnc2c1)c1cnc(C2CCN(C(=O)c3ccccc3F)C2)s1` (stereo not drawn) [Example 804, 2-[1-(2-fluorobenzoyl)pyrrolidin-3-yl]-N-(imidazo[1,2-a]pyridin-7-ylmethyl)-1,3-thiazole-5-carboxamide] the same measures were 49.7 nM, 289 nM and 0.445 nM.
For `CC(C)C(=O)N1CCC(c2ncc(C(=O)NCc3ccn4ccnc4c3)s2)C1` (stereo not drawn) [Example 805, N-(imidazo[1,2-a]pyridin-7-ylmethyl)-2-[1-(2-methylpropanoyl)pyrrolidin-3-yl]-1,3-thiazole-5-carboxamide] the same measures were 7820 nM, 3920 nM and 1.12 nM.
For `CC(C)CC(=O)N1CCC(c2ncc(C(=O)NCc3ccn4ccnc4c3)s2)C1` (stereo not drawn) [Example 806, N-(imidazo[1,2-a]pyridin-7-ylmethyl)-2-[1-(3-methylbutanoyl)pyrrolidin-3-yl]-1,3-thiazole-5-carboxamide] the same measures were 1400 nM, 2740 nM and 0.543 nM.
For the molecule `O=C(NCc1ccn2ccnc2c1)c1cnc(C2CCN(C(=O)c3ccccc3)C2)s1` (stereo not drawn) [Example 807, 2-(1-benzoylpyrrolidin-3-yl)-N-(imidazo[1,2-a]pyridin-7-ylmethyl)-1,3-thiazole-5-carboxamide], the IC50 with PC3 cells worked out at 100 nM; in experiment [1], 628 nM; at NAMPT, 0.509 nM.
